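A five-concentration, 48-hour dose response in 96-well plates underlies each endpoint, interpolated linearly between surrounding concentrations. GI50 marks 50% less growth.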 Calls of active or inactive are those of the source. Cut-off read from the data, not from the text of the source: active = GI50 up to about 1.1 µM and inactive = higher.
What was measured:
Experiment in all cases: DTP human tumour cell line panel, 48 h
BT-549 = test system: BT-549
M19-MEL = test system: M19-MEL
DMS-114 = test system: DMS-114
PC-3 = test system: PC-3
T47D = test system: T47D
DU-145 = test system: DU-145
LXFL 529 = test system: LXFL 529
RXF 631 = test system: RXF 631
786-0 = test system: 786-0

Compound | GI50 (BT-549) | GI50 (M19-MEL) | GI50 (DMS-114) | GI50 (PC-3) | GI50 (T47D) | GI50 (DU-145) | GI50 (LXFL 529) | GI50 (RXF 631) | GI50 (786-0)
COC1C(O)CC(OC2CC(Oc3cc4cc5c(c(O)c4c(O)c3C)C(=O)[C@@H](OC3CC(OC4CC(OC6CC(C)(O)C(OC(C)=O)C(C)O6)C(O)C(C)O4)C(O)C(C)O3)[C@H]([C@H](OC)C(=O)[C@@H](O)[C@@H](C)O)C5)OC(C)C2OC(C)=O)OC1C (stereo not given in full) [CHROMOMYCIN] | 1.49e-05 µM (active) | 0.00337 µM (active) | 2.14e-05 µM (active) | 3.57e-05 µM (active) | < 0.01 µM (active) | 2.48e-05 µM (active) |  |  | 
CCCC[C@H]1[C@@H](OCOc2ccccc2)COC(=O)N1[C@H](C)c1ccccc1 | 19.7 µM (inactive) |  |  | 6.1 µM (inactive) | 11.3 µM (inactive) | 21.5 µM (inactive) |  |  | 
CN(C)CCNC(=O)c1cccc2c1C(=O)c1ccccc1C2=O |  | 20 µM (inactive) | 15.7 µM (inactive) |  |  |  |  |  | 
CC1=C[C@]2(CC(C)C3C(CC4(C)C5CCC6C(C)(C)C(=O)CC[C@@]67C[C@@]57CC[C@]34C)O2)OC1=O (stereo not given in full) |  |  | 3.81 µM (inactive) |  |  |  | 7.52 µM (inactive) | 3.54 µM (inactive) | 
CCOC(C)OC1CC(n2cc(C)c(=O)[nH]c2=O)OC1CO (stereo not given) |  | > 100 µM (inactive) | > 100 µM (inactive) |  |  |  | > 100 µM (inactive) |  | 
CCN(CC)CCOC(=O)c1ccc(N)cc1.CCOC(=O)Nc1ccc(S(=O)(=O)OC)cc1.CCOC(=O)Nc1ccc(S(=O)(=O)OC)cc1.Nc1ccc(C(=O)O)c(O)c1 |  | > 100 µM (inactive) | > 100 µM (inactive) |  |  |  | > 100 µM (inactive) | > 100 µM (inactive) | > 100 µM (inactive)
COc1cccc(N2C(=O)C3c4[nH]c5ccc(C)cc5c4C4CCC(C(C)(C)C)CC4C3C2=O)c1 (stereo not given) |  |  |  | 4.43 µM (inactive) | 7.28 µM (inactive) | > 10 µM (inactive) |  |  | 
Nc1ncc2c(n1)-c1ccccc1OC2 |  | > 100 µM (inactive) | > 100 µM (inactive) |  |  |  |  |  | 
CC1=CC2c3cccc4[nH]cc(c34)CC2N(C)C1 (stereo not given) |  | > 100 µM (inactive) | 51.2 µM (inactive) |  |  |  |  |  | 
COc1cc([C@@H]2c3cc4c(c(O[C@@H]5O[C@H]6CO[C@@H](C)O[C@H]6[C@H](O)[C@@H]5O)c3C[C@H]3COC(=O)[C@@H]32)OCO4)cc(OC)c1O |  | 20.5 µM (inactive) | 3.79 µM (inactive) |  |  |  |  |  | 
CCOC(=O)C(O)(NC(=O)c1ccc(F)cc1)C(F)(F)F (stereo not given) | > 100 µM (inactive) |  |  | > 100 µM (inactive) | > 100 µM (inactive) | > 100 µM (inactive) |  |  | 
C[n+]1c2ccccc2c(C(=O)NC(CCCNC(=N)N)C(=O)O)c2ccccc21 (stereo not given) | > 100 µM (inactive) |  |  | > 100 µM (inactive) | > 100 µM (inactive) | > 100 µM (inactive) |  |  | > 100 µM (inactive)
Cc1c2c(cc3c1[nH]c1ccccc13)C(c1ccc(F)cc1)=NCC2 |  | 1.21 µM (inactive) | 0.746 µM (active) |  |  |  |  |  | 
O=S(=O)(O)c1cc2ccc1/C=C\c1ccc(cc1S(=O)(=O)O)/N=N\c1ccc(c(S(=O)(=O)O)c1)/C=C\c1ccc(cc1S(=O)(=O)O)/N=N\2 |  | > 100 µM (inactive) |  |  |  |  |  |  | 
N#CCCC1(CCC#N)CCCCCCC(CCC#N)(CCC#N)C(O)C1O (stereo not given) |  |  |  | > 100 µM (inactive) | > 100 µM (inactive) | > 100 µM (inactive) |  |  | > 100 µM (inactive)
Cc1cccc(N2C(=O)C3c4[nH]c5ccc(C)cc5c4C4CCC(C(C)(C)C)CC4C3C2=O)c1 (stereo not given) | 27.4 µM (inactive) |  |  | 13.7 µM (inactive) | 14.3 µM (inactive) | 16.1 µM (inactive) |  |  | 
CCOC(=O)CCc1c(C)c2c(OC(C)=O)cc(OC(C)=O)cc2oc1=O |  | 61.9 µM (inactive) | 23.4 µM (inactive) |  |  |  | 37.4 µM (inactive) |  | 78.7 µM (inactive)
Cc1[nH]c(=O)[nH]c(=O)c1C(=O)N(CCO)Cc1ccccc1 | > 100 µM (inactive) |  |  | 24.6 µM (inactive) | > 100 µM (inactive) | > 100 µM (inactive) |  |  | 
